Tested on: 494315-158-R-J1-PDC complex spheroid growth, percent test/control
Assay: Anticancer human tumor 494315-158-R-J1-PDC patient-derived soft tissue sarcoma cell line growth inhibition [Asc]
Conditions: for IC50: curve of first compound; for viability, T/C: stronger effect = lower value
How it was run: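 Concentration series start at each agent's clinical Cmax, or at 10 microM when none is established, and drop in half-log steps; agents are applied alone or together to complex spheroids built with HUVEC and hMSC.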

[1] = second compound 0.03 µM, first compound 0.00949 µM
[2] = second compound 0.03 µM, first compound 0.03 µM
[3] = second compound 0.03 µM, first compound 0.0949 µM
[4] = second compound 0.03 µM, first compound 0.3 µM
[5] = second compound 0.0949 µM, first compound 0.00949 µM
[6] = second compound 0.0949 µM, first compound 0.03 µM
[7] = second compound 0.0949 µM, first compound 0.0949 µM
[8] = second compound 0.0949 µM, first compound 0.3 µM
[9] = second compound 0.3 µM, first compound 0.00949 µM
[10] = second compound 0.3 µM, first compound 0.03 µM
[11] = second compound 0.3 µM, first compound 0.0949 µM
[12] = second compound 0.3 µM, first compound 0.3 µM
[13] = second compound 0.949 µM, first compound 0.00949 µM
[14] = second compound 0.949 µM, first compound 0.03 µM
[15] = second compound 0.949 µM, first compound 0.0949 µM
[16] = second compound 0.949 µM, first compound 0.3 µM
[17] = second compound 3 µM, first compound 0.00949 µM
[18] = second compound 3 µM, first compound 0.03 µM
[19] = second compound 3 µM, first compound 0.0949 µM
[20] = second compound 3 µM, first compound 0.3 µM
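Further: compound exposure lasted seven days after spheroids formed for three days.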

Structure (SMILES): NC(=O)C(=Cn1cnc(-c2cc(C(F)(F)F)cc(C(F)(F)F)c2)n1)c1cncnc1 + CCN1C(C(=O)NC23CCC(C(=O)O)(CC2)CC3)C(c2cccc(Cl)c2F)C2(C(=O)Nc3cc(Cl)ccc32)C12CCCCC2
- IC50 (second compound 0.03 µM): 72.6 nM
- IC50 (second compound 0.0949 µM): 52.4 nM
- IC50 (second compound 0.3 µM): 68.7 nM
- IC50 (second compound 0.949 µM): 74.9 nM
- IC50 (second compound 3 µM): 79.1 nM
- viability, T/C (second compound 0.03 µM, first compound 0.000949 µM): 97%
- viability, T/C (second compound 0.03 µM, first compound 0.003 µM): 107%
- viability, T/C [1]: 84.9%
- viability, T/C [2]: 78.3%
- viability, T/C [3]: 41%
- viability, T/C [4]: 17.4%
- viability, T/C (second compound 0.0949 µM, first compound 0.000949 µM): 96.6%
- viability, T/C (second compound 0.0949 µM, first compound 0.003 µM): 96.4%
- viability, T/C [5]: 81.6%
- viability, T/C [6]: 64.4%
- viability, T/C [7]: 35.5%
- viability, T/C [8]: 16.8%
- viability, T/C (second compound 0.3 µM, first compound 0.000949 µM): 96.6%
- viability, T/C (second compound 0.3 µM, first compound 0.003 µM): 88%
- viability, T/C [9]: 97.6%
- viability, T/C [10]: 74.8%
- viability, T/C [11]: 40.4%
- viability, T/C [12]: 17.5%
- viability, T/C (second compound 0.949 µM, first compound 0.000949 µM): 98.2%
- viability, T/C (second compound 0.949 µM, first compound 0.003 µM): 89.3%
- viability, T/C [13]: 80.6%
- viability, T/C [14]: 70.8%
- viability, T/C [15]: 43.4%
- viability, T/C [16]: 19.1%
- viability, T/C (second compound 3 µM, first compound 0.000949 µM): 102%
- viability, T/C (second compound 3 µM, first compound 0.003 µM): 103%
- viability, T/C [17]: 95.6%
- viability, T/C [18]: 81%
- viability, T/C [19]: 44%
- viability, T/C [20]: 13.6%

Structure (SMILES): Cn1ncnc1[C@H]1c2n[nH]c(=O)c3cc(F)cc(c23)N[C@@H]1c1ccc(F)cc1 + CNC(C)C(=O)NC1CN(S(=O)(=O)c2cccc(S(=O)(=O)N3CCC4CCC(C(=O)NC(c5ccccc5)c5ccccc5)N4C(=O)C(NC(=O)C(C)NC)C3)c2)CCC2CCC(C(=O)NC(c3ccccc3)c3ccccc3)N2C1=O
- IC50 (second compound 0.01 µM): 34.3 nM
- IC50 (second compound 0.0316 µM): 3.18 nM
- IC50 (second compound 0.1 µM): 0.316 nM
- IC50 (second compound 0.316 µM): < 0.316 nM
- IC50 (second compound 1 µM): < 0.316 nM
- viability, T/C (second compound 0.01 µM, first compound 0.000316 µM): 65.8%
- viability, T/C (second compound 0.01 µM, first compound 0.001 µM): 73%
- viability, T/C (second compound 0.01 µM, first compound 0.00316 µM): 59.1%
- viability, T/C (second compound 0.01 µM, first compound 0.01 µM): 53.5%
- viability, T/C (second compound 0.01 µM, first compound 0.0316 µM): 49.6%
- viability, T/C (second compound 0.01 µM, first compound 0.1 µM): 46.1%
- viability, T/C (second compound 0.0316 µM, first compound 0.000316 µM): 56.5%
- viability, T/C (second compound 0.0316 µM, first compound 0.001 µM): 59.9%
- viability, T/C (second compound 0.0316 µM, first compound 0.00316 µM): 50.1%
- viability, T/C (second compound 0.0316 µM, first compound 0.01 µM): 36.8%
- viability, T/C (second compound 0.0316 µM, first compound 0.0316 µM): 38%
- viability, T/C (second compound 0.0316 µM, first compound 0.1 µM): 34.1%
- viability, T/C (second compound 0.1 µM, first compound 0.000316 µM): 44.1%
- viability, T/C (second compound 0.1 µM, first compound 0.001 µM): 53.4%
- viability, T/C (second compound 0.1 µM, first compound 0.00316 µM): 49.6%
- viability, T/C (second compound 0.1 µM, first compound 0.01 µM): 32%
- viability, T/C (second compound 0.1 µM, first compound 0.0316 µM): 33.4%
- viability, T/C (second compound 0.1 µM, first compound 0.1 µM): 31.2%
- viability, T/C (second compound 0.316 µM, first compound 0.000316 µM): 49.9%
- viability, T/C (second compound 0.316 µM, first compound 0.001 µM): 38.8%
- viability, T/C (second compound 0.316 µM, first compound 0.00316 µM): 33.7%
- viability, T/C (second compound 0.316 µM, first compound 0.01 µM): 29.4%
- viability, T/C (second compound 0.316 µM, first compound 0.0316 µM): 27.2%
- viability, T/C (second compound 0.316 µM, first compound 0.1 µM): 26.4%
- viability, T/C (second compound 1 µM, first compound 0.000316 µM): 41.1%
- viability, T/C (second compound 1 µM, first compound 0.001 µM): 40.1%
- viability, T/C (second compound 1 µM, first compound 0.00316 µM): 38.5%
- viability, T/C (second compound 1 µM, first compound 0.01 µM): 26.9%
- viability, T/C (second compound 1 µM, first compound 0.0316 µM): 29%
- viability, T/C (second compound 1 µM, first compound 0.1 µM): 22.6%

Structure (SMILES): Cc1nc(N2CCC3(CC2)COC(C)C3N)c(CO)nc1Sc1ccnc(N)c1Cl (stereo not given) + CCN1C(C(=O)NC23CCC(C(=O)O)(CC2)CC3)C(c2cccc(Cl)c2F)C2(C(=O)Nc3cc(Cl)ccc32)C12CCCCC2
- IC50 (second compound 0.03 µM): > 3000 nM
- IC50 (second compound 0.0949 µM): 1430 nM
- IC50 (second compound 0.3 µM): 915 nM
- IC50 (second compound 0.949 µM): 601 nM
- IC50 (second compound 3 µM): 718 nM
- viability, T/C [1]: 102%
- viability, T/C [2]: 90.3%
- viability, T/C [3]: 70.8%
- viability, T/C [4]: 64.2%
- viability, T/C (second compound 0.03 µM, first compound 0.949 µM): 51.5%
- viability, T/C (second compound 0.03 µM, first compound 3 µM): 58.4%
- viability, T/C [5]: 83.8%
- viability, T/C [6]: 83.6%
- viability, T/C [7]: 72%
- viability, T/C [8]: 69%
- viability, T/C (second compound 0.0949 µM, first compound 0.949 µM): 59.5%
- viability, T/C (second compound 0.0949 µM, first compound 3 µM): 36.4%
- viability, T/C [9]: 79.6%
- viability, T/C [10]: 89.9%
- viability, T/C [11]: 81.7%
- viability, T/C [12]: 68.3%
- viability, T/C (second compound 0.3 µM, first compound 0.949 µM): 50.4%
- viability, T/C (second compound 0.3 µM, first compound 3 µM): 37.1%
- viability, T/C [13]: 89.3%
- viability, T/C [14]: 87.2%
- viability, T/C [15]: 76.9%
- viability, T/C [16]: 63.4%
- viability, T/C (second compound 0.949 µM, first compound 0.949 µM): 40%
- viability, T/C (second compound 0.949 µM, first compound 3 µM): 37.6%
- viability, T/C [17]: 80.9%
- viability, T/C [18]: 86%
- viability, T/C [19]: 78.2%
- viability, T/C [20]: 62.2%
- viability, T/C (second compound 3 µM, first compound 0.949 µM): 47.1%
- viability, T/C (second compound 3 µM, first compound 3 µM): 32.5%
